Measured values reported in paper PMC11995724, “Antibiotic target discovery by integrated phenotypic and activity-based profiling of electrophilic fragments” (Cell chemical biology, 2025).

Test: in vitro
Details: human, hek293t cells

Structure (SMILES) | viability at 48 h, 25 µM
COc1cccc(NC(=O)C(C#N)=Cc2ccc(C#N)cc2)c1 [8-G18, 2-cyano-3-(4-cyanophenyl)-N-(3-methoxyphenyl)prop-2-enamide] | 60.2%
COc1ccc(C=C(C#N)C(=O)Nc2nccs2)cc1O [8-G19, 2-cyano-3-(3-hydroxy-4-methoxyphenyl)-N-(1,3-thiazol-2-yl)prop-2-enamide] | 85%
CC1(C)Cc2cc(C=C(C#N)C(=O)Nc3ccccc3F)ccc2O1 [8-G20, 2-cyano-3-(2,2-dimethyl-2,3-dihydro-1-benzofuran-5-yl)-N-(2-fluorophenyl)prop-2-enamide] | 68%
CCOc1ccccc1NC(=O)C(C#N)=Cc1c(F)cccc1F [8-G21, 2-cyano-3-(2,6-difluorophenyl)-N-(2-ethoxyphenyl)prop-2-enamide] | 78.1%
CCOc1ccc(C=C(C#N)C(=O)N2CCc3sccc3C2)cc1 [8-G22, 3-(4-ethoxyphenyl)-2-{4H,5H,6H,7H-thieno[3,2-c]pyridine-5-carbonyl}prop-2-enenitrile] | 61.5%
N#CC(=Cc1ccc2c(c1)OCCO2)C(=O)NCc1ccccc1 [8-H03, N-benzyl-2-cyano-3-(2,3-dihydro-1,4-benzodioxin-6-yl)prop-2-enamide] | 127%
N#CC(=Cc1cccc(F)c1F)C(=O)NC(N)=O [8-H04, {2-cyano-2-[(2,3-difluorophenyl)methylidene]acetyl}urea] | 89.9%
CCCn1c(C)cc(C=C(C#N)C(=O)Nc2ccccc2)c1C [8-H05, 2-cyano-3-(2,5-dimethyl-1-propyl-1H-pyrrol-3-yl)-N-phenylprop-2-enamide] | 108%
N#CC(=Cc1c[nH]nc1-c1ccccc1F)C(=O)Nc1ccccc1F [8-H06, 2-cyano-N-(2-fluorophenyl)-3-[3-(2-fluorophenyl)-1H-pyrazol-4-yl]prop-2-enamide] | 90.8%
COc1cc(C=C(C#N)C(=O)Nc2ccc(F)cc2)cc(Cl)c1O [8-H07, 3-(3-chloro-4-hydroxy-5-methoxyphenyl)-2-cyano-N-(4-fluorophenyl)prop-2-enamide] | 87.7%
COc1ccccc1NC(=O)C(C#N)=Cc1ccco1 [8-H08, 2-cyano-3-(furan-2-yl)-N-(2-methoxyphenyl)prop-2-enamide] | 93%
Cc1ccccc1NC(=O)C(C#N)=Cc1cccc2ccccc12 [8-H09, 2-cyano-N-(2-methylphenyl)-3-(naphthalen-1-yl)prop-2-enamide] | 88.4%
N#CC(C(=O)Nc1ccccc1)=C1NCCCN1 [8-H10, 2-cyano-2-(1,3-diazinan-2-ylidene)-N-phenylacetamide] | 97.7%
Cc1ccc(NC(=O)C(C#N)=Cc2cccc(C(F)(F)F)c2)c(C)c1 [8-H11, 2-cyano-N-(2,4-dimethylphenyl)-3-[3-(trifluoromethyl)phenyl]prop-2-enamide] | 75%
Cc1ccc(C=C(C#N)C(=O)NCCc2ccccc2)o1 [8-H12, 2-cyano-3-(5-methylfuran-2-yl)-N-(2-phenylethyl)prop-2-enamide] | 118%
COc1ccc(C=C(C#N)C(=O)NC2CCCCC2)cc1O [8-H13, 2-cyano-N-cyclohexyl-3-(3-hydroxy-4-methoxyphenyl)prop-2-enamide] | 86.5%
CCCCNC(=O)C(C#N)=Cc1ccc(F)cc1F [8-H14, N-butyl-2-cyano-3-(2,4-difluorophenyl)prop-2-enamide] | 103%
CC(C)NC(=O)C(C#N)=Cc1cccs1 [8-H15, 2-cyano-N-(propan-2-yl)-3-(thiophen-2-yl)prop-2-enamide] | 117%
N#CC(=Cc1cn(-c2ccccc2)nc1-c1ccc(Cl)cc1)C(N)=O [8-H16, 3-[3-(4-chlorophenyl)-1-phenyl-1H-pyrazol-4-yl]-2-cyanoprop-2-enamide] | 125%
N#CC(=Cc1ccc(Cl)cc1Cl)C(N)=O [8-H17, 2-cyano-3-(2,4-dichlorophenyl)prop-2-enamide] | 93.6%
N#CC(=Cc1ccccc1OC(F)F)C(=O)NC1CCCCC1 [8-H18, 2-cyano-N-cyclohexyl-3-[2-(difluoromethoxy)phenyl]prop-2-enamide] | 20.8%
COc1ccc(C=C(C#N)C(=O)Nc2ccc3c(c2)OCCO3)cc1O [8-H19, 2-cyano-N-(2,3-dihydro-1,4-benzodioxin-6-yl)-3-(3-hydroxy-4-methoxyphenyl)prop-2-enamide] | 99.8%
CN1C=C(C(F)(F)F)C=CC1=C(C#N)C(=O)Nc1ccccc1F [8-H20, 2-cyano-N-(2-fluorophenyl)-2-[1-methyl-5-(trifluoromethyl)-1,2-dihydropyridin-2-ylidene]acetamide] | 90.1%
COc1cc(C=C(C#N)C(=O)NC2CCCCC2)cc(Cl)c1O [8-H21, 3-(3-chloro-4-hydroxy-5-methoxyphenyl)-2-cyano-N-cyclohexylprop-2-enamide] | 92.7%
N#CC(C(=O)Nc1ccc(Cl)cc1)=C(S)Nc1ccccc1 [8-H22, N-(4-chlorophenyl)-2-cyano-3-(phenylamino)-3-sulfanylprop-2-enamide] | 78.8%

Structure (SMILES) | viability at 48 h, 25 µM
COc1ccc(C=C(C#N)C(=O)Nc2cccc([N+](=O)[O-])c2)cc1 [8-I03, 2-cyano-3-(4-methoxyphenyl)-N-(3-nitrophenyl)prop-2-enamide] | 105%
COc1ccc(NC(=O)C(C#N)=Cc2c(C)n[nH]c2C)cc1 [8-I04, 2-cyano-3-(3,5-dimethyl-1H-pyrazol-4-yl)-N-(4-methoxyphenyl)prop-2-enamide] | 84.7%
COc1ccc(C=C(C#N)C(=O)Nc2ccc(C)c(C)c2)cc1 [8-I05, 2-cyano-N-(3,4-dimethylphenyl)-3-(4-methoxyphenyl)prop-2-enamide] | 87.4%
CC1CCCCC1NC(=O)C(C#N)=Cc1ccc(N2CCOCC2)cc1 (centres unmarked) [8-I06, 2-cyano-N-(2-methylcyclohexyl)-3-[4-(morpholin-4-yl)phenyl]prop-2-enamide] | 52.8%
Cc1cccc(C)c1NC(=O)C(C#N)=Cc1ccsc1 [8-I07, 2-cyano-N-(2,6-dimethylphenyl)-3-(thiophen-3-yl)prop-2-enamide] | 85.3%
CC(C)NC(=O)C(C#N)=Cc1cnn(-c2ccc(Cl)cc2)c1 [8-I08, 3-[1-(4-chlorophenyl)-1H-pyrazol-4-yl]-2-cyano-N-(propan-2-yl)prop-2-enamide] | 77.6%
COc1ccc(C=C(C#N)C(=O)Nc2cccc(Cl)c2)cc1 [8-I09, N-(3-chlorophenyl)-2-cyano-3-(4-methoxyphenyl)prop-2-enamide] | 80%
N#CC(=Cc1cc(F)ccc1F)C(=O)Nc1ccc2c(c1)OCCO2 [8-I10, 2-cyano-3-(2,5-difluorophenyl)-N-(2,3-dihydro-1,4-benzodioxin-6-yl)prop-2-enamide] | 53.5%
CSc1ccc(C=C(C#N)C(=O)N2CCCC2)cc1 [8-I11, 3-[4-(methylsulfanyl)phenyl]-2-(pyrrolidine-1-carbonyl)prop-2-enenitrile] | 106%
N#CC(=Cc1cc(F)ccc1F)C(=O)NC1CCCC1 [8-I12, 2-cyano-N-cyclopentyl-3-(2,5-difluorophenyl)prop-2-enamide] | 16.8%
Cc1cc(C)c(NC(=O)C(C#N)=Cc2ccc(C(C)(C)C)cc2)c(C)c1 [8-I13, 3-(4-tert-butylphenyl)-2-cyano-N-(2,4,6-trimethylphenyl)prop-2-enamide] | 9.25%
N#CC(=Cc1cccc(O)c1)C(=O)Nc1ccc(N2CCOCC2)cc1 [8-I14, 2-cyano-3-(3-hydroxyphenyl)-N-[4-(morpholin-4-yl)phenyl]prop-2-enamide] | 82.5%
N#CC(=Cc1ccsc1)C(=O)NCc1ccc(Cl)cc1 [8-I15, N-[(4-chlorophenyl)methyl]-2-cyano-3-(thiophen-3-yl)prop-2-enamide] | 101%
Cc1cccc(NC(=O)C(C#N)=Cc2ccc(F)c(F)c2)c1 [8-I16, 2-cyano-3-(3,4-difluorophenyl)-N-(3-methylphenyl)prop-2-enamide] | 75.5%
N#CC(=Cc1ccc([N+](=O)[O-])o1)C(=O)NCc1ccco1 [8-I17, 2-cyano-N-[(furan-2-yl)methyl]-3-(5-nitrofuran-2-yl)prop-2-enamide] | 1.08%
N#CC(=Cc1ccc(F)cc1)C(=O)Nc1ccccc1C(F)(F)F [8-I18, 2-cyano-3-(4-fluorophenyl)-N-[2-(trifluoromethyl)phenyl]prop-2-enamide] | 81.7%
CC(C)NC(=O)C(C#N)=Cc1ccc(-c2ccc([N+](=O)[O-])cc2)o1 [8-I19, 2-cyano-3-[5-(4-nitrophenyl)furan-2-yl]-N-(propan-2-yl)prop-2-enamide] | 93%
N#CC(=Cc1ccco1)C(=O)Nc1cccc(Cn2cccn2)c1 [8-I20, 2-cyano-3-(furan-2-yl)-N-{3-[(1H-pyrazol-1-yl)methyl]phenyl}prop-2-enamide] | 82.1%
Cc1ccc(C=C(C#N)C(=O)NC(C)C)o1 [8-I21, 2-cyano-3-(5-methylfuran-2-yl)-N-(propan-2-yl)prop-2-enamide] | 95.7%
CCOc1ccc(C=C(C#N)C(=O)Nc2ccncc2)cc1 [8-I22, 2-cyano-3-(4-ethoxyphenyl)-N-(pyridin-4-yl)prop-2-enamide] | 99.3%
Cc1ccccc1NC(=O)C(C#N)=Cc1ccc2c(c1)OCCO2 [8-J03, 2-cyano-3-(2,3-dihydro-1,4-benzodioxin-6-yl)-N-(2-methylphenyl)prop-2-enamide] | 93.5%
C=CCNC(=O)C(C#N)=Cc1ccc(C(=O)O)cc1 [8-J04, 4-{2-cyano-2-[(prop-2-en-1-yl)carbamoyl]eth-1-en-1-yl}benzoic acid] | 87.1%
N#CC(=Cc1ccc(C#N)cc1)C(=O)Nc1cccc(Cl)c1Cl [8-J05, 2-cyano-3-(4-cyanophenyl)-N-(2,3-dichlorophenyl)prop-2-enamide] | 112%
N#CC(=Cc1cccc(Cl)c1Cl)C(=O)NCCc1ccccc1 [8-J06, 2-cyano-3-(2,3-dichlorophenyl)-N-(2-phenylethyl)prop-2-enamide] | 10.1%
Cc1cccc(C=C(C#N)C(=O)NC(C)C)c1 [8-J07, 2-cyano-3-(3-methylphenyl)-N-(propan-2-yl)prop-2-enamide] | 94.3%
